Reference: paper PMC3849131, “^18 F-click labeling and preclinical evaluation of a new ^18 F-folate for PET imaging” (EJNMMI Research, 2013)

What was measured:
[1] = test system: KB tumor-bearing mice; assay: Ex vivo biodistribution in human KB tumor-bearing nude mice; conditions: for Ratio of tumor to Blood / Ratio of tumor to Kidney / Ratio of tumor to Liver / %ID/g Blood / %ID/g Bone / %ID/g Feces / %ID/g Gall bladder / %ID/g Heart / %ID/g Intestines (empty) / %ID/g Tumor / %ID/g Kidneys / %ID/g Liver / %ID/g Lung / %ID/g Muscle / %ID/g Salivary glands / %ID/g Spleen / %ID/g Stomach (empty): n = 3; for %ID/g Tumor: KB tumor
Description: All animal experiments were approved by the local veterinary department and complied with Swiss and local laws on animal protection. Female CD-1 nude mice (Charles River, Sulzfeld, Germany) were fed with a folate-deficient rodent diet (Harlan Laboratories, Indianapolis, IN, USA). After an acclimatization period of 5 to 7 days, human KB tumor cells (5 × 10^6 cells in 0.1 mL sterile phosphate-buffered saline (PBS)) were inoculated subcutaneously on both shoulders of each mouse. Twelve days later, the animals were intravenously injected with [^18 F]12 (approximately 5 MBq, 100 μL). […] Animals were euthanized at the indicated time points, and selected organs and tissues were collected, weighed, and measured in a γ-counter. The incorporated radioactivity was expressed as percentage injected dose per gram (%ID/g) of tissue. PET/computed tomography (CT) experiments were performed with a dedicated small-animal PET/CT scanner (eXplore Vista PET/CT, Sedecal, Algete, Spain/GE Healthcare). Animals were intravenously injected with [^18 F]12 (approximately 13 MBq, 100 μL). For scanning, mice were anesthetized with isoflurane in an air/oxygen mixture. The PET scans were acquired from 60 to 90 min post-injection (p.i.) followed by a CT. After acquisition, PET data were reconstructed in user-defined time frames, and the fused datasets of PET and CT were analyzed with PMOD software (version 3.4).
Biodistribution studies of the new ^18 F-folate [^18 F]12 were performed using human KB tumor-bearing nude mice, determined at 30, 60, and 90 min post-injection. […] Selective blocking of the folate receptors led to a decrease in specific radiotracer accumulation of 94% in KB tumors and 99% in kidneys (Figure 2). The strong blocking effect reflected the high specificity of the tracer to the FR in vivo. Unspecific liver uptake decreased from 5.2%ID/g to 2.1%ID/g over 90 min similar to the background radioactivity in the feces and gall bladder (Table 2), which is believed to be a beneficial effect of the increased polarity of this novel radiofolate. Compared to the biodistribution profile at 45 min post-injection of the former ^18 F-click folate by Ross and co-workers, the specific uptake of the original ^18 F-click folate in KB tumors was retained, whereas the specific kidney uptake more than doubled. This indicated a stronger tendency to renal excretion, more likely a result of the increased polarity of the new ^18 F-folate [^18 F]12. Additionally, the highest unspecific background accumulation in the gall bladder was reduced by half. This background reduction correlated with the more renal excretion and the two times lower k’ value as an indicator of lipophilicity of the here presented radiofolate. […] On the other hand, the still increased uptake levels in the gall bladder and feces were evidence of a prominent hepatobiliary elimination pathway of [^18 F]12. However, distinct changes in the molecular structure of the folate-based radioconjugate [^18 F]12 induced a higher polarity into the lead molecule ^18 F-click folate and a significant reduction of the in vivo background.
Figure 2 Results of ex vivo biodistribution studies under control and blockade conditions using [^18 F]12 in mice. The human KB tumor-bearing nude mice were euthanized 60 min post-injection. Data are expressed as percentage injected dose per gram tissue (%ID/g).

[2] = Relative lipophilicity (capacity factor k’) by reversed-phase HPLC; assay type: physicochemical; conditions: methanol-phosphoric acid buffer eluent, pH 2
Description: The relative lipophilicity of 6 was determined as capacity factor k’ (k’ = (tretention - tsolvent) / tsolvent) by reversed-phase HPLC using a methanol-phosphoric acid buffer eluent system at pH 2. […] This method has already been described elsewhere. The capacity factor k’ (k’ = (tretention - tsolvent) / tsolvent) was determined using reversed-phase HPLC and enables different (radio)folates to be compared based on their polarity. The values determined can be used to give hint to the in vivo behavior in terms of the degree of hepatobiliary excretion by comparison with literature examples.

[3] = biological target: T1, folate receptor (Homo sapiens, UniProt P15328); assay: Displacement assay with [^3H]folic acid on FR-positive human KB cells; assay type: binding; conditions: Cheng-Prusoff equation, assuming Kd of [^3H]folic acid 1 nM
T1 construct: using [^3H]folic acid and human KB cells in cell suspension; endogenous in cells; host or cells: human KB cells
Description: FR-positive human KB cells were kept under folate-deficient conditions to adjust the folate concentration levels to that of the human serum.
Figure 1 Displacement assay. […] Experiments were conducted in triplicate (n = 3).

[4] = 60 min p.i., 100 μg native folic acid before tracer
[5] = 60 min p.i. blockade (100 μg folic acid 5 min before tracer)

T1 sequence (P15328 25-257): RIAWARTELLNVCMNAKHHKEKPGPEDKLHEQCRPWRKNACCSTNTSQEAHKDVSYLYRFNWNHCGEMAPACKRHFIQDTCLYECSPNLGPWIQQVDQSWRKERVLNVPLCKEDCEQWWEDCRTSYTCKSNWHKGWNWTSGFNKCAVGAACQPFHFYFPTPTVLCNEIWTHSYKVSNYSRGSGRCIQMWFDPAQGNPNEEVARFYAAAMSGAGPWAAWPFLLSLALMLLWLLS

Substance: 16-(4-(((2-amino-4-oxo-3,4-dihydropteridin-6-yl)methyl)amino)benzamido)-1-(4-(2-(2-(2-[^18 F]fluoroethoxy)ethoxy)ethoxy)-1H-1,2,3-triazol-1-yl)-13-oxo-3,6,9-trioxa-12-azaheptadecan-17-oic acid [[^18 F]12]
- Ratio of tumor to Blood ([1]; 30 min p.i.): 16.81 ± 3.13
- Ratio of tumor to Kidney ([1]; 30 min p.i.): 0.08 ± 0.02
- Ratio of tumor to Liver ([1]; 30 min p.i.): 0.69 ± 0.22
- decrease in specific radiotracer accumulation by FR blocking, KB tumors [1, 4]: 94%
- decrease in specific radiotracer accumulation by FR blocking, kidneys [1, 4]: 99%
- Ratio of tumor to Blood ([1]; 60 min p.i.): 18.95 ± 2.68
- Ratio of tumor to Kidney ([1]; 60 min p.i.): 0.08 ± 0.01
- Ratio of tumor to Liver ([1]; 60 min p.i.): 0.86 ± 0.19
- Ratio of tumor to Blood ([1]; 90 min p.i.): 22.72 ± 6.73
- Ratio of tumor to Kidney ([1]; 90 min p.i.): 0.09 ± 0.01
- Ratio of tumor to Liver ([1]; 90 min p.i.): 1.55 ± 0.15
- %ID/g Blood ([1]; 30 min p.i.): 0.20 ± 0.02 %ID/g
- %ID/g Blood [1, 5]: 0.04 ± 0.01 %ID/g
- %ID/g Blood ([1]; 60 min p.i.): 0.18 ± 0.01 %ID/g
- %ID/g Blood ([1]; 90 min p.i.): 0.16 ± 0.02 %ID/g
- %ID/g Bone ([1]; 30 min p.i.): 1.47 ± 0.05 %ID/g
- %ID/g Bone [1, 5]: 0.06 ± 0.06 %ID/g
- %ID/g Bone ([1]; 60 min p.i.): 1.13 ± 0.21 %ID/g
- %ID/g Bone ([1]; 90 min p.i.): 0.84 ± 0.16 %ID/g
- %ID/g Feces ([1]; 30 min p.i.): 164.2 ± 72.5 %ID/g
- %ID/g Feces [1, 5]: 105.5 ± 128.7 %ID/g
- %ID/g Feces ([1]; 60 min p.i.): 29.48 ± 19.04 %ID/g
- %ID/g Feces ([1]; 90 min p.i.): 11.36 ± 4.29 %ID/g
- %ID/g Gall bladder ([1]; 30 min p.i.): 309.3 ± 187.6 %ID/g
- %ID/g Gall bladder [1, 5]: 775.5 ± 206.5 %ID/g
- %ID/g Gall bladder ([1]; 60 min p.i.): 133.2 ± 67.38 %ID/g
- %ID/g Gall bladder ([1]; 90 min p.i.): 55.13 %ID/g
- %ID/g Heart ([1]; 30 min p.i.): 1.81 ± 0.61 %ID/g
- %ID/g Heart [1, 5]: 0.02 ± 0.01 %ID/g
- %ID/g Heart ([1]; 60 min p.i.): 1.09 ± 0.07 %ID/g
- %ID/g Heart ([1]; 90 min p.i.): 0.79 ± 0.16 %ID/g
- %ID/g Intestines (empty) ([1]; 30 min p.i.): 23.52 ± 7.37 %ID/g
- %ID/g Intestines (empty) [1, 5]: 14.72 ± 19.32 %ID/g
- %ID/g Intestines (empty) ([1]; 60 min p.i.): 4.56 ± 2.31 %ID/g
- %ID/g Intestines (empty) ([1]; 90 min p.i.): 1.92 ± 0.52 %ID/g
- %ID/g Tumor ([1]; 30 min p.i.): 3.4 %ID/g
- %ID/g Tumor ([1]; 30 min p.i., listed as 12): 3.39 ± 0.54 %ID/g
- %ID/g Tumor [1, 5]: 0.19 ± 0.07 %ID/g
- %ID/g Tumor ([1]; 60 min p.i.): 3.39 ± 0.44 %ID/g
- %ID/g Tumor ([1]; 90 min p.i.): 3.54 ± 0.68 %ID/g
- %ID/g Kidneys ([1]; 30 min p.i.): 42 %ID/g
- %ID/g Kidneys ([1]; 30 min p.i., listed as 12): 41.80 ± 2.58 %ID/g
- %ID/g Kidneys [1, 5]: 0.26 ± 0.08 %ID/g
- %ID/g Kidneys ([1]; 60 min p.i.): 40.77 ± 4.34 %ID/g
- %ID/g Kidneys ([1]; 90 min p.i.): 41.04 ± 7.04 %ID/g
- %ID/g Liver ([1]; 30 min p.i.): 5.2 %ID/g
- %ID/g Liver ([1]; 30 min p.i., listed as 12): 5.24 ± 1.57 %ID/g
- %ID/g Liver [1, 5]: 0.21 ± 0.09 %ID/g
- %ID/g Liver ([1]; 60 min p.i.): 4.05 ± 0.67 %ID/g
- %ID/g Liver ([1]; 90 min p.i.): 2.1 %ID/g
- %ID/g Liver ([1]; 90 min p.i., listed as 12): 2.30 ± 0.54 %ID/g
- %ID/g Lung ([1]; 30 min p.i.): 1.21 ± 0.15 %ID/g
- %ID/g Lung [1, 5]: 0.04 ± 0.03 %ID/g
- %ID/g Lung ([1]; 60 min p.i.): 1.02 ± 0.7 %ID/g
- %ID/g Lung ([1]; 90 min p.i.): 0.86 ± 0.17 %ID/g
- %ID/g Muscle ([1]; 30 min p.i.): 1.91 ± 0.25 %ID/g
- %ID/g Muscle [1, 5]: 0.08 ± 0.09 %ID/g
- %ID/g Muscle ([1]; 60 min p.i.): 1.64 ± 0.46 %ID/g
- %ID/g Muscle ([1]; 90 min p.i.): 1.17 ± 0.03 %ID/g
- %ID/g Salivary glands ([1]; 30 min p.i.): 8.01 ± 1.16 %ID/g
- %ID/g Salivary glands [1, 5]: 0.20 ± 0.18 %ID/g
- %ID/g Salivary glands ([1]; 60 min p.i.): 9.28 ± 1.68 %ID/g
- %ID/g Salivary glands ([1]; 90 min p.i.): 7.03 ± 1.98 %ID/g
- %ID/g Spleen ([1]; 30 min p.i.): 0.53 ± 0.14 %ID/g
- %ID/g Spleen [1, 5]: 0.06 ± 0.03 %ID/g
- %ID/g Spleen ([1]; 60 min p.i.): 0.49 ± 0.04 %ID/g
- %ID/g Spleen ([1]; 90 min p.i.): 0.43 ± 0.08 %ID/g
- %ID/g Stomach (empty) ([1]; 30 min p.i.): 2.18 ± 0.76 %ID/g
- %ID/g Stomach (empty) [1, 5]: 0.12 ± 0.11 %ID/g
- %ID/g Stomach (empty) ([1]; 60 min p.i.): 1.39 ± 0.13 %ID/g
- %ID/g Stomach (empty) ([1]; 90 min p.i.): 0.96 ± 0.37 %ID/g
- capacity factor k’ [2]: 1.12
- Ki [3]: 1.6 nM
